Assay results taken from ChEMBL document CHEMBL1139867, “Discovery of the HCV NS3/4A protease inhibitor (1R,5S)-N-[3-amino-1-(cyclobutylmethyl)-2,3-dioxopropyl]-3- [2(S)-[[[(1,1-dimethylethyl)amino]carbonyl]amino]-3,3-dimethyl-1-oxobutyl]- 6,6-dimethyl-3-azabicyclo[3.1.0]hexan-2(S)-carboxamide (Sch 503034) II. Key steps in structure-based optimization” (J Med Chem, 2007).

Biological target: Hepatitis C virus serine protease, NS3/NS4A (Hepatitis C virus, UniProt A3EZI9+D2K2A8)
Assay: Inhibition of HCV genotype H 1a NS3/4A protease
Format: protein-complex assay

Chain of Hepatitis C virus serine protease, NS3/NS4A (D2K2A8 whole entry): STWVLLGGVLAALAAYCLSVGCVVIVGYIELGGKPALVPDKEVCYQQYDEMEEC
Chain of Hepatitis C virus serine protease, NS3/NS4A (A3EZI9 whole entry): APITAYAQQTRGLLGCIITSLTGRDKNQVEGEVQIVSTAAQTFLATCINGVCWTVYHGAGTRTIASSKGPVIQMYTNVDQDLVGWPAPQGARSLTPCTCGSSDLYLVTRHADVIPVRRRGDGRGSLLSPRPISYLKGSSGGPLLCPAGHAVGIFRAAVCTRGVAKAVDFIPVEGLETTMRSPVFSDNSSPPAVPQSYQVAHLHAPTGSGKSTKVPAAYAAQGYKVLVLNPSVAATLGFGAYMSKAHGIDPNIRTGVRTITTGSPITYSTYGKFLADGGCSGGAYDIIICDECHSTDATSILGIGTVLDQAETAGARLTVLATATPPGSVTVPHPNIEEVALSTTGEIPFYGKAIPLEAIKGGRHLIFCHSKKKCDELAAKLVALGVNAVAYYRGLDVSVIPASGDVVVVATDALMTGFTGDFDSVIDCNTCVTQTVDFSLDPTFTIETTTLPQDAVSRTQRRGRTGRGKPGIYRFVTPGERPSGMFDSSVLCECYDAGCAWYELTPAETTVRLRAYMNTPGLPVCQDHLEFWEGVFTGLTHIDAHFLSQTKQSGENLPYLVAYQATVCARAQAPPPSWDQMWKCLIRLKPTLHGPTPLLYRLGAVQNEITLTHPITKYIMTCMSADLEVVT

| Ki [nM] | SMILES |
| --- | --- |
| 140 | CC(C)(C)NC(=O)NC(C(=O)N1C[C@H]2[C@@H](C1C(=O)N[C@@H](CC1CCC1)C(=O)C(N)=O)C2(F)F)C(C)(C)C (stereo partly drawn) |
| 150 | CC(C)(C)OC(=O)NC(C(=O)N1C[C@H]2[C@@H](C1C(=O)N[C@@H](CC1CCCC1)C(=O)C(N)=O)C2(C)C)C1CCCCC1 (stereo partly drawn) |
| 15000 | CC(C)C[C@H](NC(=O)C(NC(=O)OC(C)(C)C)C(C)(C)C)C(=O)N[C@@H](CC1CCC1)C(=O)C(N)=O (stereo partly drawn) |
| 100 | CC(C)[C@H](NC(=O)NC(C)(C)C)C(=O)N1C[C@H]2[C@@H](C1C(=O)N[C@@H](CC1CC1)C(=O)C(N)=O)C2(C)C (stereo partly drawn) |
| 360 | CCCC[C@H](NC(=O)C1[C@@H]2[C@H](CN1C(=O)C(NC(=O)OC(C)(C)C)C(C)(C)C)C2(C)C)C(=O)C(N)=O (stereo partly drawn) |
| 220 | CCC[C@H](NC(=O)C1[C@@H]2[C@H](CN1C(=O)C(NC(=O)OC(C)(C)C)C(C)(C)C)C2(C)C)C(=O)C(N)=O (stereo partly drawn) |
| 50 | CC(C)(C)NC(=O)NC(C(=O)N1C[C@H]2[C@@H](C1C(=O)N[C@@H](CC1CC1(F)F)C(=O)C(N)=O)C2(C)C)C(C)(C)C (stereo partly drawn) |
| 800 | COC(=O)NC(C(=O)N1C[C@H]2[C@@H](C1C(=O)N[C@@H](CC1CC1)C(=O)C(N)=O)C2(C)C)C1CCCCC1 (stereo partly drawn) |
| 500 | CC(C)(C)NC(=O)NC(C(=O)N1C[C@@H]2OC(C)(C)C[C@@H]2C1C(=O)N[C@@H](CC1CCC1)C(=O)C(N)=O)C(C)(C)C (stereo partly drawn) |
| 400 | CC(C)C[C@H](NC(=O)C1[C@@H]2[C@H](CN1C(=O)C(NC(=O)OC(C)(C)C)C1CCCCC1)C2(C)C)C(=O)C(N)=O (stereo partly drawn) |
| 25 | CC(C)(C)OC(=O)NC(C(=O)N1C[C@H]2[C@@H](C1C(=O)N[C@@H](CC1CC1)C(=O)C(N)=O)C2(C)C)C1CCCCC1 (stereo partly drawn) |
| 230 | CCOC(=O)NC(C(=O)N1C[C@H]2[C@@H](C1C(=O)N[C@@H](CC1CC1)C(=O)C(N)=O)C2(C)C)C1CCCCC1 (stereo partly drawn) |
| 960 | CC(C)(C)NC(=O)NC(C(=O)N1C[C@@H]2OC(C)(C)[C@@H]2C1C(=O)N[C@@H](CC1CC1)C(=O)C(N)=O)C(C)(C)C (stereo partly drawn) |
| 54 | CCC[C@H](NC(=O)C1[C@@H]2[C@H](CN1C(=O)C(NC(=O)NC(C)(C)C)C1CCCCC1)C2(C)C)C(=O)C(N)=O (stereo partly drawn) |
| > 3300 | CC(C)(C)C[C@H](NC(=O)C1[C@@H]2[C@H](CN1C(=O)C(NC(=O)OC(C)(C)C)C(C)(C)C)C2(C)C)C(=O)C(N)=O (stereo partly drawn) |
| > 69000 | CC(C)(C)OC(=O)NC(C(=O)N1C[C@H]2[C@@H](C1C(=O)NC(C(=O)C(N)=O)C(C)(C)C)C2(C)C)C(C)(C)C (stereo partly drawn) |
| 740 | CCC(NC(=O)C1[C@@H]2[C@H](CN1C(=O)C(NC(=O)OC(C)(C)C)C1CCCCC1)C2(C)C)C(=O)C(N)=O (stereo partly drawn) |

| Ki [nM] | SMILES |
| --- | --- |
| 100 | CCC[C@H](NC(=O)C1[C@@H]2[C@H](CN1C(=O)C(NC(=O)OC(C)(C)C)C1CCCCC1)C2(C)C)C(=O)C(N)=O (stereo partly drawn) |
| 480 | CC(C)C[C@H](NC(=O)C1[C@@H]2[C@H](CN1C(=O)C(NC(=O)OC(C)(C)C)C(C)(C)C)C2(C)C)C(=O)C(N)=O (stereo partly drawn) |
| 1600 | CC(C)(C)NC(=O)NC(C(=O)N1C[C@H]2[C@@H](C1C(=O)NC(C(=O)C(N)=O)C1CC1)C2(C)C)C(C)(C)C (stereo partly drawn) |
| 100 | CC(C)(C)NC(=O)NC(C(=O)N1C[C@H]2[C@@H](C1C(=O)NC(C(=O)C(N)=O)C1CCC1)C2(C)C)C(C)(C)C (stereo partly drawn) |
| 5000 | CC(C)(C)NC(=O)NC(C(=O)N1CCC[C@H]1C(=O)N[C@@H](CC1CCC1)C(=O)C(N)=O)C(C)(C)C (stereo partly drawn) |
| 14 | CC(C)(C)NC(=O)NC(C(=O)N1C[C@H]2[C@@H](C1C(=O)N[C@@H](CC1CCC1)C(=O)C(N)=O)C2(C)C)C(C)(C)C (stereo partly drawn) |
| 1800 | CC(C)(C)NC(=O)NC(C(=O)N1C[C@H]2[C@@H](C1C(=O)NC(C(=O)C(N)=O)C1CCCC1)C2(C)C)C(C)(C)C (stereo partly drawn) |
| > 12000 | CC(C)(C)OC(=O)NC(C(=O)N1C[C@H]2[C@@H](C1C(=O)N[C@@H](CC1CCCCC1)C(=O)C(N)=O)C2(C)C)C1CCCCC1 (stereo partly drawn) |
| 68 | CC(=O)N[C@H](C(=O)NC(C(=O)N1C[C@H]2[C@@H](C1C(=O)N[C@@H](CC1CC1)C(=O)C(N)=O)C2(C)C)C1CCCCC1)C(C)C (stereo partly drawn) |
| 38 | CC(=O)N[C@H](C(=O)NC(C(=O)N1C[C@H]2[C@@H](C1C(=O)N[C@@H](CC1CCC1)C(=O)C(N)=O)C2(C)C)C(C)(C)C)C(C)C (stereo partly drawn) |
| 19 | CC(C)(C)NC(=O)NC(C(=O)N1C[C@H]2[C@@H](C1C(=O)N[C@@H](CC1CCC1)C(=O)C(N)=O)C2(Cl)Cl)C(C)(C)C (stereo partly drawn) |
| 115 | CC(C)(C)NC(=O)NC(C(=O)N1C[C@H]2[C@@H](C1C(=O)N[C@@H](CC1CC(F)(F)C1)C(=O)C(N)=O)C2(C)C)C(C)(C)C (stereo partly drawn) |
| 13 | CC(C)(C)NC(=O)NC(C(=O)N1C[C@H]2[C@@H](C1C(=O)N[C@@H](CC1CC1)C(=O)C(N)=O)C2(C)C)C(C)(C)C (stereo partly drawn) |
| 60 | CC(C)OC(=O)NC(C(=O)N1C[C@H]2[C@@H](C1C(=O)N[C@@H](CC1CC1)C(=O)C(N)=O)C2(C)C)C1CCCCC1 (stereo partly drawn) |
| 50 | CC(C)(C)NC(=O)NC(C(=O)N1C[C@H]2[C@@H](C1C(=O)N[C@@H](CC1CC1)C(=O)C(N)=O)C2(C)C)C1CCCCC1 (stereo partly drawn) |
| 25 | CC(C)(C)OC(=O)NC(C(=O)N1C[C@H]2[C@@H](C1C(=O)N[C@@H](CC1CCC1)C(=O)C(N)=O)C2(C)C)C1CCCCC1 (stereo partly drawn) |
